# Test results reported in patent publication US5145853A, “Bactericidal formulations for use in veterinary medicine” (Bayer Aktiengesellschaft, priority 1985, dated 1992).
# Like-named read-outs stand apart in the source and are kept apart here.
# Columns and labels:
# mycoplasma gallisepticum = assay: Treatment of mycoplasmoses in poultry; format: in vivo, chicken; conditions: for clinical symptoms: animals killed 19 days after infection; for Average weight of the animals after 14: after 14 days; for Average weight of the animals after 19: after 19 days; for Average weight of the animals after 0: day 0 (before treatment)
# Experimental: Groups of 40 chicken which were free from mycoplasma gallisepticum and mycoplasma synoviae were infected at the second day after hatching with a pathogenic wild strain of mycoplasma gallisepticum. The treatment began 24 hours after the infection. One group of 40 chickens was not treated and served as a control. The chickens were treated via their drinking water at 5 successive days following the infection. 19 days after the infection the animals were killed, weighed and examined.
# [1] = test system: mycoplasmas mycopneumoniae; assay: Treatment of mycoplasmoses in pigs; format: in vivo, piglets; conditions: lungs examined on the 34th day
# Source text: Groups of 5 piglets with an average weight of 25 kg were fed with standard piglet feed from the beginning of the test, to which feed the stated quantities of active compound had been added.
# On the 4th day after the beginning of the test, the animals were infected with mycoplasmas mycopneumoniae. As from the 10th day the animals were only given feed not containing any active compound. On the 34th day the animals were killed and the lungs were examined for lesions.
# [2] = test system: mycoplasma strain no. 348; assay: Mycoplasmas/Inhibitory concentration test, strain 348; format: cell-based; conditions: NO.348, read-out: MIC value, mycoplasma strain no. 348
# Experimental: (§1) The test was carried out on microtiter plates. Series of concentrations of the active compound in 0.01 N soda solution were prepared. The concentrations were from 256 μg/ml to 0.0156 μg/ml.
# (§2) 0.5 ml of an active compound solution are placed in each identation in the microtiter plate. To this 0.5 ml of an inoculum of mycoplasmas containing about 10^6 organisms per ml were added.
# (§3) The inoculum consisted of a modified mycoplasma broth (PPLO) which contained about 20% of horse serum and in which mycoplasmas had been cultured to a titer of about 10^7 organisms per ml (determined by the MacCrady method).
# (§4) Then the microtiter plate was incubated at 37° C. and the growth determined after 48, 72 and 96 hours. That concentration of active compound, which prevented any increase in the moculated mycoplasmas was taken as the MIC-value.
# [3] = test system: mycoplasma strain no. 7981; assay: Mycoplasmas/Inhibitory concentration test, strain 7981; format: cell-based
# Experimental: as §1, §2, §3, §4
# [4] = test system: mycoplasma strain no. 6442; assay: Mycoplasmas/Inhibitory concentration test, strain 6442; format: cell-based
# Experimental: as §1, §2, §3, §4
# [5] = test system: mycoplasma strain no. 4587; assay: Mycoplasmas/Inhibitory concentration test, strain 4587; format: cell-based
# Experimental: as §1, §2, §3, §4
# [6] = test system: mycoplasma strain no. 81115; assay: Mycoplasmas/Inhibitory concentration test, strain 81115; format: cell-based
# Experimental: as §1, §2, §3, §4
# [7] = test system: mycoplasma strain no. 8008; assay: Mycoplasmas/Inhibitory concentration test, strain 8008; format: cell-based
# Experimental: as §1, §2, §3, §4
# [8] = 250 ppm in drinking water, 5 successive days
# [9] = NO.7981, series 256 μg/ml to 0.0156 μg/ml, growth after 48, 72 and 96 hours, 37° C., read-out: MIC value, mycoplasma strain no. 7981
# [10] = NO.6442, series 256 μg/ml to 0.0156 μg/ml, growth after 48, 72 and 96 hours, 37° C., read-out: MIC value, mycoplasma strain no. 6442
# [11] = NO.4587, series 256 μg/ml to 0.0156 μg/ml, growth after 48, 72 and 96 hours, 37° C., read-out: MIC value, mycoplasma strain no. 4587
# [12] = NO.81115, series 256 μg/ml to 0.0156 μg/ml, growth after 48, 72 and 96 hours, 37° C., read-out: MIC value, mycoplasma strain no. 81115
# [13] = NO.8008, series 256 μg/ml to 0.0156 μg/ml, growth after 48, 72 and 96 hours, 37° C., read-out: MIC value, mycoplasma strain no. 8008
# [14] = 500 ppm in drinking water, 5 successive days
molecule,measurement,setting,value
CCN1CCN(c2cc3c(cc2F)c(=O)c(C(=O)O)cn3C2CC2)CC1 [Compound I],clinical symptoms,mycoplasma gallisepticum; [8],none
same,Average weight of the animals after 14,mycoplasma gallisepticum; [8],355.7
same,Average weight of the animals after 19,mycoplasma gallisepticum; [8],463.8
same,Average weight of the animals after 0,mycoplasma gallisepticum; 250 ppm in drinking water,47.3
same,result (lung lesions),[1]; 50 mg/kg in the feed,no lesions
same,result (lung lesions),[1]; 100 mg/kg in the feed,no lesions
same,MIC,[2],0.5 µg/mL
same,MIC,"[3]; NO.7981, read-out: MIC value, mycoplasma strain no. 7981",0.5 µg/mL
same,MIC,"[4]; NO.6442, read-out: MIC value, mycoplasma strain no. 6442",0.15 µg/mL
same,MIC,"[5]; NO.4587, read-out: MIC value, mycoplasma strain no. 4587",0.5 µg/mL
same,MIC,"[6]; NO.81115, read-out: MIC value, mycoplasma strain no. 81115",0.5 µg/mL
same,MIC,"[7]; NO.8008, read-out: MIC value, mycoplasma strain no. 8008",0.25 µg/mL
C=C[C@]1(C)C[C@@H](OC(=O)CSCCN(CC)CC)[C@]2(C)[C@H](C)CC[C@]3(CCC(=O)[C@H]32)[C@@H](C)[C@@H]1O [Tiamulin],result (lung lesions),"[1]; 200 mg/kg in the feed, control 10%",5%
CC1CCc2cc(F)cc3c(=O)c(C(=O)O)cn1c23 (stereo not drawn) [flumequine],MIC,[2],256 µg/mL
same,MIC,[3]; [9],256 µg/mL
same,MIC,[4]; [10],256 µg/mL
same,MIC,[5]; [11],256 µg/mL
same,MIC,[6]; [12],256 µg/mL
same,MIC,[7]; [13],256 µg/mL
CCn1cc(C(=O)O)c(=O)c2ccc(C)nc21 [nalidixic acid],MIC,[2],128 µg/mL
same,MIC,[3]; [9],128 µg/mL
same,MIC,[4]; [10],128 µg/mL
same,MIC,[5]; [11],128 µg/mL
same,MIC,[6]; [12],128 µg/mL
same,MIC,[7]; [13],128 µg/mL
Tylocin,clinical symptoms,mycoplasma gallisepticum; [14],clearly noticeable
same,animals dead (clinical symptoms),"mycoplasma gallisepticum; 500 ppm in drinking water, 5 successive days, groups of 40 chickens",no animals dead
same,Average weight of the animals after 14,mycoplasma gallisepticum; [14],311.9
same,Average weight of the animals after 19,mycoplasma gallisepticum; [14],426.3
same,Average weight of the animals after 0,mycoplasma gallisepticum; 500 ppm in drinking water,48.4
